Test results published in patent US20100130612A1, “COMPOSITION CONTAINING CHITOSAN FOR SUSTAINED DRUG RELEASE” (THE JORDANIAN PHARMACEUTICAL MANUFACTURING CO., priority 2005, published 2010).

Assay: Solubility of acidic drugs in acidic media when combined with chitosan polymer solution
Format: physicochemical
Conditions: pH<5.0; combined with a respective chitosan polymer solution

solubility in acidic media (in words) | SMILES
soluble in acidic media | CC(C)Cc1ccc(C(C)C(=O)O)cc1.[Na] (centres unmarked) [ibuprofen sodium]
soluble in acidic media | O=C(O)Cc1ccccc1Nc1c(Cl)cccc1Cl [diclofenac sodium]
